# Values of other authors, collected in PubChem BioAssay AID1259409 (Chemical Carcinogenesis Research Information System (CCRIS), 2018).
# Tested on: rodent chemically induced tumor inhibition, incidence and multiplicity
# Assay: CCRIS tumor inhibitor studies
compound,measurement,setting,value
C=CCN=C=S,"tumour outcome (control, treated, inhibition, significance)","Carcinogen: 4-(METHYLNITROSAMINO)-1-(3-PYRIDYL)-1-BUTANONE, 64091-91-4, Dose [Inhibitor]: 0, 1 UMOL ONCE 2 HR PRIOR TO CARCINOGEN DOSE (STUDY DURATION: 16 WK), Route [Inhibitor]: GAVAGE, Species: MOUSE, Strain/Sex: STRAIN-A/FEMALE, Target Tissue: Type of Lesion: LUNG: ADENOMA, Dose [Carcinogen]: 10 UMOL IN 0.1 ML SALINE ONCE, Promoter: NONE USED","100%, 100%, 0%, not significant"
same,"tumour outcome (control, treated, inhibition, significance)","Carcinogen: 4-(METHYLNITROSAMINO)-1-(3-PYRIDYL)-1-BUTANONE, 64091-91-4, Dose [Inhibitor]: 0, 5 UMOL ONCE 2 HR PRIOR TO CARCINOGEN DOSE (STUDY DURATION: 16 WK), Route [Inhibitor]: GAVAGE, Species: MOUSE, Strain/Sex: STRAIN-A/FEMALE, Target Tissue: Type of Lesion: LUNG: ADENOMA, Dose [Carcinogen]: 10 UMOL IN 0.1 ML SALINE ONCE, Promoter: NONE USED","100%, 100%, 0%, not significant"
C/C(=C\c1ccc(C(=O)O)cc1)c1ccc2c(c1)SCCC2(C)C,"tumour outcome (control, treated, inhibition, significance)","Carcinogen: 7,12-DIMETHYLBENZ[A]ANTHRACENE, 57-97-6, Dose [Inhibitor]: 1.7 NMOL IN 0.2 ML ACETONE 1 HR PRIOR TO EACH PROMOTER DOSE FOR 12 WK (STUDY DURATION: 14 WK), Route [Inhibitor]: DERMAL, Species: MOUSE, Strain/Sex: SENCAR/FEMALE, Target Tissue: Type of Lesion: SKIN: PAPILLOMA, Dose [Carcinogen]: 200 NMOL IN 0.2 ML ACETONE ONCE, Promoter: 12-O-TETRADECANOYLPHORBOL-13-ACETATE, 16561-29-8","100%, 70%, 30%, not calculated"
same,"tumour outcome (control, treated, inhibition, significance)","Carcinogen: 7,12-DIMETHYLBENZ[A]ANTHRACENE, 57-97-6, Dose [Inhibitor]: 1.7 NMOL IN 0.2 ML ACETONE 1 HR PRIOR TO EACH PROMOTER DOSE FOR 20 WK (STUDY DURATION: 22 WK), Route [Inhibitor]: DERMAL, Species: MOUSE, Strain/Sex: CD-1/FEMALE, Target Tissue: Type of Lesion: SKIN: PAPILLOMA, Dose [Carcinogen]: 200 NMOL IN 0.2 ML ACETONE ONCE, Promoter: 12-O-TETRADECANOYLPHORBOL-13-ACETATE, 16561-29-8","94%, 67%, 29%, not calculated"
same,"tumour outcome (control, treated, inhibition, significance)","Carcinogen: 7,12-DIMETHYLBENZ[A]ANTHRACENE, 57-97-6, Dose [Inhibitor]: 17 NMOL IN 0.2 ML ACETONE 1 HR PRIOR TO EACH PROMOTER DOSE FOR 12 WK (STUDY DURATION: 14 WK), Route [Inhibitor]: DERMAL, Species: MOUSE, Strain/Sex: SENCAR/FEMALE, Target Tissue: Type of Lesion: SKIN: PAPILLOMA, Dose [Carcinogen]: 200 NMOL IN 0.2 ML ACETONE ONCE, Promoter: 12-O-TETRADECANOYLPHORBOL-13-ACETATE, 16561-29-8","100%, 72%, 28%, not calculated"
same,"tumour outcome (control, treated, inhibition, significance)","Carcinogen: 7,12-DIMETHYLBENZ[A]ANTHRACENE, 57-97-6, Dose [Inhibitor]: 17 NMOL IN 0.2 ML ACETONE 1 HR PRIOR TO EACH PROMOTER DOSE FOR 20 WK (STUDY DURATION: 22 WK), Route [Inhibitor]: DERMAL, Species: MOUSE, Strain/Sex: CD-1/FEMALE, Target Tissue: Type of Lesion: SKIN: PAPILLOMA, Dose [Carcinogen]: 200 NMOL IN 0.2 ML ACETONE ONCE, Promoter: 12-O-TETRADECANOYLPHORBOL-13-ACETATE, 16561-29-8","94%, 33%, 65%, not calculated"
same,"tumour outcome (control, treated, inhibition, significance)","Carcinogen: 7,12-DIMETHYLBENZ[A]ANTHRACENE, 57-97-6, Dose [Inhibitor]: 170 NMOL IN 0.2 ML ACETONE 1 HR PRIOR TO EACH PROMOTER DOSE FOR 12 WK (STUDY DURATION: 14 WK), Route [Inhibitor]: DERMAL, Species: MOUSE, Strain/Sex: SENCAR/FEMALE, Target Tissue: Type of Lesion: SKIN: PAPILLOMA, Dose [Carcinogen]: 200 NMOL IN 0.2 ML ACETONE ONCE, Promoter: 12-O-TETRADECANOYLPHORBOL-13-ACETATE, 16561-29-8","100%, 0%, 100%, not calculated"
same,"tumour outcome (control, treated, inhibition, significance)","Carcinogen: 7,12-DIMETHYLBENZ[A]ANTHRACENE, 57-97-6, Dose [Inhibitor]: 170 NMOL IN 0.2 ML ACETONE 1 HR PRIOR TO EACH PROMOTER DOSE FOR 20 WK (STUDY DURATION: 22 WK), Route [Inhibitor]: DERMAL, Species: MOUSE, Strain/Sex: CD-1/FEMALE, Target Tissue: Type of Lesion: SKIN: PAPILLOMA, Dose [Carcinogen]: 200 NMOL IN 0.2 ML ACETONE ONCE, Promoter: 12-O-TETRADECANOYLPHORBOL-13-ACETATE, 16561-29-8","94%, 0%, 100%, not calculated"
Cc1ccc(O)c(O)c1,"tumour outcome (control, treated, inhibition, significance)","Carcinogen: N-NITROSOBIS(2-HYDROXYPROPYL)AMINE, 53609-64-6, Dose [Inhibitor]: 0, 1.5% IN DIET FOR 30 WK BEGINNING POST CARCINOGEN TREATMENT (STUDY DURATION: 35 WK), Route [Inhibitor]: ORAL, Species: HAMSTER, Strain/Sex: SYRIAN/MALE, Target Tissue: Type of Lesion: PANCREAS: ADENOCARCINOMA, Dose [Carcinogen]: 500 MG/KG 1/WK FOR 5 WK, Promoter: NONE USED","8/17 (47%), 9/19 (47%), 0%, not significant"
CC1=C(/C=C/C(C)=C/C=C/C(C)=C/C=C/C=C(C)/C=C/C=C(C)/C=C/C2=C(C)C(=O)[C@@H](O)CC2(C)C)C(C)(C)C[C@H](O)C1=O,"tumour outcome (control, treated, inhibition, significance)","Carcinogen: 4-NITROQUINOLINE-1-OXIDE, 56-57-5, Dose [Inhibitor]: 0, 100 PPM IN DIET FOR 10 WK BEGINNING PRIOR TO CARCINOGEN TREATMENT (STUDY DURATION: 32 WK), Route [Inhibitor]: ORAL, Species: RAT, Strain/Sex: F344/MALE, Target Tissue: Type of Lesion: TONGUE: PAPILLOMA, Dose [Carcinogen]: 20 PPM IN DRINKING WATER FOR 8 WK, Promoter: NONE USED","4/24 (17%), 0/18 (0%), 100%, p<0.05"
same,"tumour outcome (control, treated, inhibition, significance)","Carcinogen: 4-NITROQUINOLINE-1-OXIDE, 56-57-5, Dose [Inhibitor]: 0, 100 PPM IN DIET FOR 10 WK BEGINNING PRIOR TO CARCINOGEN TREATMENT (STUDY DURATION: 32 WK), Route [Inhibitor]: ORAL, Species: RAT, Strain/Sex: F344/MALE, Target Tissue: Type of Lesion: TONGUE: SQUAMOUS CELL CARCINOMA, Dose [Carcinogen]: 20 PPM IN DRINKING WATER FOR 8 WK, Promoter: NONE USED","13/24 (54%), 0/18 (0%), 100%, p<0.05"
same,"tumour outcome (control, treated, inhibition, significance)","Carcinogen: 4-NITROQUINOLINE-1-OXIDE, 56-57-5, Dose [Inhibitor]: 0, 100 PPM IN DIET FOR 22 WK BEGINNING 1 WK POST CARCINOGEN TREATMENT (STUDY DURATION: 32 WK), Route [Inhibitor]: ORAL, Species: RAT, Strain/Sex: F344/MALE, Target Tissue: Type of Lesion: TONGUE: PAPILLOMA, Dose [Carcinogen]: 20 PPM IN DRINKING WATER FOR 8 WK, Promoter: NONE USED","4/24 (17%), 0/20 (0%), 100%, p<0.05"
same,"tumour outcome (control, treated, inhibition, significance)","Carcinogen: 4-NITROQUINOLINE-1-OXIDE, 56-57-5, Dose [Inhibitor]: 0, 100 PPM IN DIET FOR 22 WK BEGINNING 1 WK POST CARCINOGEN TREATMENT (STUDY DURATION: 32 WK), Route [Inhibitor]: ORAL, Species: RAT, Strain/Sex: F344/MALE, Target Tissue: Type of Lesion: TONGUE: SQUAMOUS CELL CARCINOMA, Dose [Carcinogen]: 20 PPM IN DRINKING WATER FOR 8 WK, Promoter: NONE USED","13/24 (54%), 0/20 (0%), 100%, p<0.05"
same,"tumour outcome (control, treated, inhibition, significance)","Carcinogen: N-BUTYL-N-(4-HYDROXYBUTYL)NITROSAMINE, 3817-11-6, Dose [Inhibitor]: 0, 50 PPM IN DRINKING WATER FOR 2O WK BEGINNING 1 WK POST CARCINOGEN TREATMENT (STUDY DURATION: 41 WK), Route [Inhibitor]: ORAL, Species: MOUSE, Strain/Sex: ICR/MALE, Target Tissue: Type of Lesion: URINARY BLADDER: CARCINOMA, Dose [Carcinogen]: 250 PPM IN DRINKING WATER FOR 20 WK, Promoter: NONE USED","15/36 (42%), 6/33 (18%), 57%, p<0.05"
same,"tumour outcome (control, treated, inhibition, significance)","Carcinogen: N-BUTYL-N-(4-HYDROXYBUTYL)NITROSAMINE, 3817-11-6, Dose [Inhibitor]: 0, 50 PPM IN DRINKING WATER FOR 20 WK BEGINNING 1 WK POST CARCINOGEN TREATMENT (STUDY DURATION: 41 WK), Route [Inhibitor]: ORAL, Species: MOUSE, Strain/Sex: ICR/MALE, Target Tissue: Type of Lesion: URINARY BLADDER: PAPILLOMA, Dose [Carcinogen]: 250 PPM IN DRINKING WATER FOR 20 WK, Promoter: NONE USED","2/36 (6%), 4/33 (12%), -100%, not significant"
